{"source": "ChEMBL document CHEMBL4184249", "about": "“Structural development of tetrachlorophthalimides as liver X receptor β (LXRβ)-selective agonists with improved aqueous solubility” (Bioorg Med Chem Lett, 2018)", "key": {"[1]": {"experiment": "Aqueous solubility of the compound in EtOH: 1/15 M phosphate buffer at pH 7.4 1:1 by HPLC method", "type": "physicochemical"}, "[2]": {"biological_target": "T1, Peroxisome proliferator-activated receptor alpha (Homo sapiens) (UniProt Q07869)", "T1 sequence (whole entry)": "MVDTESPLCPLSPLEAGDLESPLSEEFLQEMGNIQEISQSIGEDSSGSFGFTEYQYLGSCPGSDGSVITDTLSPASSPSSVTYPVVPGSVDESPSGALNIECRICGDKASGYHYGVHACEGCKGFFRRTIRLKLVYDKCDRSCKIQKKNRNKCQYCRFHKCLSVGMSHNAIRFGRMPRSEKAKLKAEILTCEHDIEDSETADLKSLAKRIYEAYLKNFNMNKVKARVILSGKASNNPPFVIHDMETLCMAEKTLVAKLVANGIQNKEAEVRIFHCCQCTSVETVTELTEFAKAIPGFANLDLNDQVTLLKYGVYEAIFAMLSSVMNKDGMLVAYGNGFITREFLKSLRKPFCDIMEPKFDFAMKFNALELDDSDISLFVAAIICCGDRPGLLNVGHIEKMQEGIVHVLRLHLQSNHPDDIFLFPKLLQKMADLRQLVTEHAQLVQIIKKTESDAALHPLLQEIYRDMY", "experiment": "Agonist activity at GAL4-tagged PPARalpha (unknown origin) expressed in HEK293 cells co-expressing CMX-beta-galactosidase at 0.3 to 30 uM incubated for 16 hrs by luciferase reporter gene assay", "type": "cell-based"}, "[3]": {"biological_target": "T2, Oxysterols receptor LXR-beta (Mus musculus) (UniProt Q60644)", "T2 sequence (whole entry)": "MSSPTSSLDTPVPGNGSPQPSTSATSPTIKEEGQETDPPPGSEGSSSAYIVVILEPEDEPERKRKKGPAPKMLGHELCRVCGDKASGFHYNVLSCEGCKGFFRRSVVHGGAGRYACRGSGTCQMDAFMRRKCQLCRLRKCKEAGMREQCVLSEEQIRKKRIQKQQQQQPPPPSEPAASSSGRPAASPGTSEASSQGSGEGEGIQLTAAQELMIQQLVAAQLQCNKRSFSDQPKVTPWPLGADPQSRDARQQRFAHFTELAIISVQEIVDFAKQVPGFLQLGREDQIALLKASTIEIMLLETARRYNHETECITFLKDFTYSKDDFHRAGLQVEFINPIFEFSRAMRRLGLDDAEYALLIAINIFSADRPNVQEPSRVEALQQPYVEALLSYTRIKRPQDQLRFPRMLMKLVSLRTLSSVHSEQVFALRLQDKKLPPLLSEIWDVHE", "experiment": "Agonist activity at mouse LXRbeta expressed in HEK293 cells co-expressing CMX-beta-galactosidase incubated for 16 hrs by luciferase reporter gene assay relative to T0901317", "type": "cell-based"}, "[4]": {"biological_target": "T3, Oxysterols receptor LXR-alpha (Homo sapiens) (UniProt Q13133)", "T3 sequence (whole entry)": "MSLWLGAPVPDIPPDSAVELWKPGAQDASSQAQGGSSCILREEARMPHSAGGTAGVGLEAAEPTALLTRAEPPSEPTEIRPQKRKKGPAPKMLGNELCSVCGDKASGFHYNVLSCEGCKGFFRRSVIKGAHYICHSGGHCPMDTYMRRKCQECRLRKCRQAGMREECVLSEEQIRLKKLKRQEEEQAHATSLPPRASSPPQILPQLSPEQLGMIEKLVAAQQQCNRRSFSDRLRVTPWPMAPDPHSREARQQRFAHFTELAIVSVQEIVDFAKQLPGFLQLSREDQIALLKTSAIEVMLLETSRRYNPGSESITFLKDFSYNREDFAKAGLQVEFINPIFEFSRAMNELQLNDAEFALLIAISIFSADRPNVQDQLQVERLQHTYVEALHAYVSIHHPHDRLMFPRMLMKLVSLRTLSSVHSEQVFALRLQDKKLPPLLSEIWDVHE", "experiment": "Agonist activity at LXRalpha ligand-binding domain (unknown origin) at 0.3 uM incubated for 1.5 hrs using fluorescein-labeled coactivator peptide by TR-FRET competitive binding assay relative to T0901317"}, "[5]": {"biological_target": "T4, Retinoic acid receptor RXR-alpha (Homo sapiens) (UniProt P19793)", "T4 sequence (whole entry)": "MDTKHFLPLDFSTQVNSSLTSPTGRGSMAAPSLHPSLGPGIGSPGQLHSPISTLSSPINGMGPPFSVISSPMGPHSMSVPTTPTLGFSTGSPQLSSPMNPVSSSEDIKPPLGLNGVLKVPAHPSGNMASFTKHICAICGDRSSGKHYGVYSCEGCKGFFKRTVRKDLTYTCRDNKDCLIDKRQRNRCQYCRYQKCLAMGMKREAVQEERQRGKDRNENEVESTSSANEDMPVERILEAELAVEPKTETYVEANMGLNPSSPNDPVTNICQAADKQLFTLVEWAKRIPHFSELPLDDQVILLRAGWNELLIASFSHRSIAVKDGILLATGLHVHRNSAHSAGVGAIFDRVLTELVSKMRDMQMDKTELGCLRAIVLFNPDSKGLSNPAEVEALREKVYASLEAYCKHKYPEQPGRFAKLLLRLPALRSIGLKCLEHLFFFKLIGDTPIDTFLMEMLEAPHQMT", "experiment": "Agonist activity at GAL4-tagged RXRalpha (unknown origin) expressed in HEK293 cells co-expressing CMX-beta-galactosidase at 0.3 to 30 uM incubated for 16 hrs by luciferase reporter gene assay", "type": "cell-based"}, "[6]": {"biological_target": "T5, Oxysterols receptor LXR-beta (Mus musculus, UniProt Q60644)", "T5 sequence (Q60644 whole entry)": "T2 sequence (whole entry)", "experiment": "Agonist activity at mouse LXRbeta expressed in HEK293 cells co-expressing CMX-beta-galactosidase incubated for 16 hrs by luciferase reporter gene assay", "type": "cell-based"}, "[7]": {"biological_target": "T6, Oxysterols receptor LXR-beta (Homo sapiens) (UniProt P55055)", "T6 sequence (whole entry)": "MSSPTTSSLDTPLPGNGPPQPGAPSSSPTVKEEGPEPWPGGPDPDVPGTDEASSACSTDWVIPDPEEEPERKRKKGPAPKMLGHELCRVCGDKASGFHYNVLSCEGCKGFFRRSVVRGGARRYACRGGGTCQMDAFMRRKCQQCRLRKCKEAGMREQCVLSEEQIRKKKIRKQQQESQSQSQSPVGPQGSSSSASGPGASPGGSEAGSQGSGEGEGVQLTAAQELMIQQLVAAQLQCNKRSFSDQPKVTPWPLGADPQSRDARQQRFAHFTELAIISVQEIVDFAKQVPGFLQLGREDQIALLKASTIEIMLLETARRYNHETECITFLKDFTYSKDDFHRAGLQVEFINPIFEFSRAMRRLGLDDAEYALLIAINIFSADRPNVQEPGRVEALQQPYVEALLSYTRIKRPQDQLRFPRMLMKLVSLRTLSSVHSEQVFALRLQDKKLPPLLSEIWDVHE", "experiment": "Agonist activity at human LXRbeta expressed in HEK293 cells co-expressing CMX-beta-galactosidase incubated for 16 hrs by luciferase reporter gene assay relative to T0901317", "type": "cell-based"}, "[8]": {"biological_target": "Oxysterols receptor LXR-beta (Homo sapiens, UniProt P55055)", "experiment": "Agonist activity at LXRbeta ligand-binding domain (unknown origin) incubated for 1.5 hrs using fluorescein-labeled coactivator peptide by TR-FRET competitive binding assay"}, "[9]": {"biological_target": "T6, Oxysterols receptor LXR-beta (Homo sapiens)", "experiment": "Agonist activity at LXRbeta in human THP1 cells assessed as increase in ABCA1 mRNA expression at 1 uM by real-time quantitative RT-PCR method", "type": "cell-based"}}, "note": "Activity calls are given as the source filed them. The rule behind the calls is not given here.", "data": [{"molecule": "O=C1c2c(Cl)c(Cl)c(Cl)c(Cl)c2C(=O)N1c1ccccc1/C=C/c1cccs1", "values": [{"measurement": "solubility", "setting": "[1]", "result": 0.015, "unit": "µg/mL"}, {"measurement": "Activity", "setting": "[2]", "result": "inactive"}, {"measurement": "Efficacy", "setting": "[3]", "result": 24, "unit": "%"}, {"measurement": "Efficacy", "setting": "[4]", "result": 6, "unit": "%"}, {"measurement": "Activity", "setting": "[5]", "result": "inactive"}, {"measurement": "EC50", "setting": "[6]", "result": 790, "unit": "nM"}, {"measurement": "Efficacy", "setting": "[7]", "result": 149, "unit": "%"}, {"measurement": "EC50", "setting": "[8]", "result": 40.4, "unit": "nM"}, {"measurement": "Activity", "setting": "[9]", "result": "Active"}]}]}
